Test results from US7449462B2, “Triazole derivatives which inhibit vasopressin antagonistic activity” (Pfizer, Inc., priority 2004, dated 2008).

Molecular target: T1, human V1A receptor (Homo sapiens, UniProt P37288)
T1 construct: expressed in transfected cells; host or cells: CHO cells (CHO-hV1A line provided by Marc Thibonnier, Case Western Reserve University)
Assay: V1A filter binding assay (screen 1.0), [3H]-AVP binding to CHO-hV1A membranes
Details: [3H]-AVP displacement, membranes of CHO cells stably expressing the human V1A receptor; Cheng-Prusoff
Procedure: 1.0 V1A Filter Binding Assay
Receptor binding assays were performed on cellular membranes prepared from CHO cells stably expressing the human V1A receptor, (CHO-hV1A). The CHO-hV1A cell line was kindly provided under a licensing agreement by Marc Thibonnier, Dept. of Medicine, Case Western Reserve University School of Medicine, Cleveland, Ohio. CHO-hV1A cells were routinely maintained at 37° C. in humidified atmosphere with 5% CO2 in DMEM/Hams F12 nutrient mix supplemented with 10% fetal bovine serum, 2 mM L-glutamine, 15 mM HEPES and 400 μg/ml G418. […] Confluent CHO-hV1A cells were washed with phosphate-buffered saline (PBS), harvested into ice cold PBS and centrifuged at 1,000 rpm. Cell pellets were stored at −80° C. until use. Cell pellets were thawed on ice and homogenised in membrane preparation buffer consisting of 50 mM Tris-HCl, pH 7.4, 5 mM MgCl2 and supplemented with a protease inhibitor cocktail, (Roche). […] The remaining pellet was homogenised and centrifuged as before. The supernatants were pooled and centrifuged at 25,000×g for 30 min at 4° C. The pellet was resuspended in freezing buffer consisting of 50 mM Tris-HCl, pH 7.4, 5 mM MgCl2 and 20% glycerol and stored in small aliquots at −80° C. until use. Protein concentration was determined using Bradford reagent and BSA as a standard. […]
Compounds were tested for their effects on [^3H]-AVP binding to CHO-hV1A membranes, (^3H-AVP; specific activity 65.5 Ci/mmol; NEN Life Sciences). […] The plates were sealed and counted on a TopCount Microplate Scintillation Counter (Packard Instruments). […] The radioligand binding data was analysed using a four parameter logistic equation with the min forced to 0%. […] Specific binding was calculated by subtracting the mean NSB cpm from the mean Total cpm. […] The inhibitory dissociation constant (Ki) was calculated using the Cheng-Prusoff equation: Ki=IC50/(1+[L]/Kd) where [L] is the concentration of ligand present in the well and Kd is the dissociation constant of the radioligand obtained from Scatchard plot analysis.

T1 sequence (P37288 whole entry): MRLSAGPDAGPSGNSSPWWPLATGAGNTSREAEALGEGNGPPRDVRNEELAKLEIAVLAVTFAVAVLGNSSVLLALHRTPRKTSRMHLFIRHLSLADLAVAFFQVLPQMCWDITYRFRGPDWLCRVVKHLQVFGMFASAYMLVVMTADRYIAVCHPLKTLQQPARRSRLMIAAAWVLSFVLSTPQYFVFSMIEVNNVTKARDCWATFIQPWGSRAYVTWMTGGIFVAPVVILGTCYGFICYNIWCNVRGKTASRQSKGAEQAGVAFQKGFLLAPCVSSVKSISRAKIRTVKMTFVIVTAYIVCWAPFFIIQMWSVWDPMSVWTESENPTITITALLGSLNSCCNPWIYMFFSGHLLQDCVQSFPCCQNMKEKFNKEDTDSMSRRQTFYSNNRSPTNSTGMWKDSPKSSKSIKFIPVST

| Ki [nM] | Compound |
| --- | --- |
| 3.32 | Cc1cc(Cl)ccc1-n1c(C)nnc1C1CCN(c2ccccn2)CC1 [Example 9, 4-[4-(4-Chloro-2-methyl-phenyl)-5-methyl-4H-[1,2,4]triazol-3-yl]-3,4,5,6-tetrahydro-2H-[1,2′]bipyridinyl] |
| 0.86 | Cc1cc(Cl)ccc1-n1c(Cn2nccn2)nnc1C1CCN(c2ccccn2)CC1 [Example 15, 4-[4-(4-Chloro-2-methyl-phenyl)-5-[1,2,3]triazol-2-ylmethyl-4H-[1,2,4]triazol-3-yl]-3,4,5,6-tetrahydro-2H-[1,2′]bipyridinyl] |
| 0.47 | Clc1ccc(-n2c(Cn3nccn3)nnc2C2CCN(c3ccccn3)CC2)cc1 [Example 17, 4-[4-(4-Chloro-phenyl)-5-[1,2,3]triazol-2-ylmethyl-4H-[1,2,4]triazol-3-yl]-3,4,5,6-tetrahydro-2H-[1,2′]bipyridinyl] |
